Data reported in patent US20080274076A1, “Composition for Use in Controlling Aedes Aegypti Mosquitoes” (priority 2005, published 2008).

Legend:
Aedes aegypti mosquitoes [1] = experiment: field test of the luring effect: open water tanks, one treated with heneicosane solution; assay type: in vivo
Experimental: Fifteen open tanks with water filled to the top were kept in the open. All the tanks were made of same material, were of the same size and contained same amount of water from the same source. The tanks were numbered consecutively and allowed to remain for a week.
All the fifteen tanks were drained of water and thoroughly cleaned. Subsequently, they were filled with water from the same source. In tank No. 1, a predetermined amount of a solution of heneicosane in n-hexane (1% w/v) was added. After fifteen days, water from each tank was analysed.
Example No. 4 was repeated 14 times with heneicosane being added in tank Nos. 2 to 15 consequentially.
Example Nos. 4 and 5 were repeated with heneicosane dissolved in n-pentane.
The above example was repeated with varying concentrations of heneicosane in the solvent.

Aedes aegypti mosquitoes [2] = experiment: oviposition attractant effect of semio-chemicals identified in larval conditioned water; assay type: in vivo
Source text: The present invention also relates to a process for the preparation of compositions for use in lure and/or killing of Aedes aegypti mosquitoes. The present invention is based on the unexpected finding that Aedes aegypti mosquitoes tend to lay eggs in stagnant water where eggs of the same species of mosquitoes had been laid previously. This led the inventors to analyse various samples of water which in turn led to the finding that water in which eggs had previously been laid by Aedes aegypti mosquitoes and which had hatched into larval stage contained various semio-chemicals. Analysis of these semio-chemicals identified them as heneicosane, nonacosane, octadecane, isopropyl myristate and docosane. […] When, stagnant water in which Aedes aegypti mosquitoes had bred earlier was left untouched the incidence of further egg laying in the same water and thriving of larval population increased. […]
Aedes aegypti mosquitoes are bred and the water is collected for isolation where the mosquitoes are at larval stage. […] The extractant is analysed by various spectral techniques like IR, NMR and GCMS and the five semio-chemicals identified are heneicosane, nonacosane, octadecane, isopropyl myristate and decosane.

Question: `CCCCCCCCCCCCCCCCCCCCC` [heneicosane, n-heneicosane] was tested. Which “attraction of mosquitoes to lay eggs in the treated tank” value (Aedes aegypti mosquitoes [1]; Example 4 repeated 14 times with heneicosane added in tank Nos. 2 to 15 consequentially) did it give?
Answer: each time the tank containing heneicosane attracted Aedes aegypti mosquitoes to lay their eggs therein

Question: What about the “luring result with another solvent” value (Aedes aegypti mosquitoes [1]; Example Nos. 4 and 5 repeated with heneicosane dissolved in n-pentane) of the same compound?
Answer: The results were exactly the same

Question: And the “mosquito larvae found in tanks (egg laying lured to treated tank)” value (Aedes aegypti mosquitoes [1]; field conditions, 15 open tanks, solution of heneicosane in n-hexane (1% w/v) added to tank No. 1, after fifteen days)?
Answer: only tank No. 1 containing the heneicosane contained mosquito larvae

Question: What about the “effectiveness as oviposition attractant among the five identified semio-chemicals” value (Aedes aegypti mosquitoes [2]; compared with nonacosane, octadecane, isopropyl myristate and docosane) of the same compound?
Answer: most effective oviposition attractant

Question: What about the “site of egg laying, stagnant water versus water containing heneicosane” value (Aedes aegypti mosquitoes [2]; stagnant water kept alongside water containing heneicosane) of the same compound?
Answer: the entire egg laying took place only in water containing heneicosane
